# From patent publication US9399133B2, “Non-invasive automated electrical control systems and methods for monitoring animal conditions” (Rhode Island Board of Education, State of Rhode Island and …, priority 2012, dated 2016)
# System: status epilepticus (SE) induced by lithium-pilocarpine (LP)
# Test: Status epilepticus induced by lithium-pilocarpine in rats receiving TFS, alone and combined with subeffective doses of diazepam
# Type: in vivo
# Source text: This study was designed to evaluate status epilepticus (SE) induced by lithium-pilocarpine (LP) in rats receiving TFS, alone and combined with subeffective doses of diazepam, an antiepileptic drug that belongs to the group of benzodiazepines. Diazepam is currently considered one of the drugs of choice to stop SE.
# [1] = LP+TFS+DZP group compared with LP, LP+DZP and LP+TFS groups, p<0.001
smiles,measurement,setting,value
CN1C(=O)CN=C(c2ccccc2)c2cc(Cl)ccc21 [diazepam],latency to mild generalized seizure,[1],significantly increased
same,latency to the establishment of the SE,[1],significantly increased
same,latency to the first forelimb clonus,[1],significantly increased
same,"total protection against LP-induced seizures and SE, animals","subeffective dose of diazepam combined with TFS (LP+TFS+DZP group), p<0.0001 vs LP, p<0.003 vs LP+DZP",62%
same,latency and incidence of LP-induced behavioral alterations,"subeffective doses of diazepam administered prior to the pilocarpine, without TFS, in comparison to the LP group",Non-significant changes
same,rats presenting seizures and SE,"subeffective doses of diazepam prior to pilocarpine, without TFS (LP+DZP group)",All rats presented seizures and SE
